The labels stand for the following.
B1: G-CSF: G-CSF (Amgen Inc.), factor identified in eFHLC-CM (protein, UniProt P09919 31-207, looked up)
Granulocyte …: TPLGPASSLPQSFLLKCLEQVRKIQGDGAALQEKLVSECATYKLCHPEELVLLGHSLGIPWAPLSSCPSQALQLAGCLSQLHSGLFLYQGLLQALEGISPELGPTLDTLQLDVADFATTIWQQMEELGMAPALQPTQGAMPAFASAFQRRAGGVLVASHLQSFLEVSYRVLRHLAQP

For one assay, the system named is ATMP-tdT Huh-7 cells. The experiment in a line: cis-P toxicity and ATM promoter activity assay. The assay is classed as cell-based, human. As to conditions: 15 μM cis-P alone.
For `N.N.[Cl][Pt][Cl]` [Cis-P, cis-platinum, reference compound], the ATM promoter activity entry was “increased”.

The same assay, now with this note: cis-P plus factor, versus cis-P-treated cells.
For the molecule “FGF1: growth factor identified in eFHLC-CM”, the ATM promoter activity entry is listed as “lowered ATM promoter activity” and the cell viability result is reported as “improved cell viability”.
The matching figures for “FGF2: growth factor identified in eFHLC-CM”: “lowered ATM promoter activity” and “improved cell viability”.
As to “IGF1: growth factor identified in eFHLC-CM”, the ATM promoter activity entry is listed as “lowered ATM promoter activity” and the cell viability entry is reported as “improved cell viability”.
On the same counts, the results for VEGF are “ineffective” and “ineffective”.
On to B1, for which the ATM promoter activity entry is recorded as “lowered ATM promoter activity” and the cell viability entry is “improved cell viability”.

The values are drawn from US10287552B2, “Generation of hepatocytes from pluripotent stem cells” (ALBERT EINSTEIN COLLEGE OF MEDICINE, INC., priority 2012, dated 2019).
